Paper PMC3057995, “Potent Anti-Tumor Effect Generated by a Novel Human Papillomavirus (HPV) Antagonist Peptide Reactivating the pRb/E2F Pathway” (PLoS ONE, 2011)

Assays:
HPV18 E7 = assay: Competitive ELISA with HPV18 E7 anti-serum; type: binding; conditions: peptides 0.08 µM to 800 µM vs HPV18 E7 anti-serum; mean ± SE, three independent experiments
CaSki cells [1] = assay: MTT cell viability assay, CaSki; type: cell-based; conditions: HPV16-positive, medium replaced daily, A540, mean ± SE, at least two independent runs in sextuplicate
Procedure: (§1) Cell viability was determined with an MTT assay. Briefly, the cells were seeded into 96-well plates at a density of 4–5×10^3 cells/well. The cells were allowed to recover for 24 h before the medium was replaced with DMEM supplemented with peptides at different concentrations. The solvent of the peptides was set as the control. The peptide-supplemented medium was replaced daily and the respective concentrations were maintained. The cells were subjected to an MTT cell proliferation assay at different time points. The plates were incubated at 37°C for 3 h with the addition of 20 µl/well MTT (5 mg/ml). Untransformed MTT in the solution was removed by aspiration. The formazan product was dissolved in DMSO, and plates were shaken vigorously at room temperature for 10–15 min to ensure complete solubilization. The optical density of the formazan solutions was measured by microplate reader at 540 nm.

HeLa cells = assay: MTT cell viability assay, HeLa; type: cell-based; conditions: HPV18-positive, A540
Procedure: as §1

[2] = test system: CNE nasopharyngeal carcinoma cells; assay: MTT cell viability assay, CNE; type: cell-based; conditions: HPV-negative, data not shown
Source text: (§2) HPV16-positive SiHa and CaSki cervical carcinoma cells were supplied by China Center for Type Culture Collection (CCTCC). The following cell lines used in this project were from our laboratory: HPV18-positive HeLa cervical carcinoma cells, CNE nasopharyngeal carcinoma cells, HaCat human keratinocyte cells, COS7 (African green monkey SV40-transformed kidney fibroblast cell line), 293T (human kidney epithelial cells), and NIH/3T3 mouse embryonic fibroblast cells. All cells were maintained in a humidified atmosphere of 5% CO2, Dulbecco's modified Eagle's medium (DMEM, pH 7.2), supplemented with 10% fetal calf serum (FCS).
as §1, with “The formazan product was dissolved in DMSO, and plates were shaken vigorously at room temperature for 10–15 min to ensure complete solubilization.” left out

[3] = test system: HaCat human keratinocyte cells; assay: MTT cell viability assay, HaCat; type: cell-based; conditions: HPV-negative, data not shown
Source text: as §2
as §1, with “The formazan product was dissolved in DMSO, and plates were shaken vigorously at room temperature for 10–15 min to ensure complete solubilization.” left out

CaSki cells [4] = assay: Western blot, CaSki; type: cell-based; conditions: 80 µM, 48 h
Procedure: Western blotting was carried out as described previously, [50]. […] After another 48 h of treatment, the cells were lysed in lysis buffer (Beyotime Institute of Biotechnology, Jiangshu, China) containing PMSF (Sigma Chemical Co., St. Louis, MI, USA) for 30 min at 4°C. The lysate was then centrifuged for 20 min at 13,000 rpm and 4°C. The proteins were then separated through SDS-PAGE and transferred onto the PVDF membrane (Immobion®-P Transfer Membrane, Millipore Corp., Billerica, MA, USA). Membranes were blocked in a Tris-buffered saline with 0.1% Tween-20 (TBS-T) solution with 5% nonfat dry milk and incubated overnight with primary antibodies at 4°C. The immunoreactive signals were detected by HRP-conjugated secondary antibodies (KPL, Gaithersburg, MD, USA) followed by SuperSignal® West Pico Chemiluminescent Substrate (Thermo Scientific, Milford, MA, USA.). Anti-β-actin antibodies were used to control protein loading. For the in vivo studies, tumors were harvested, and the cell lysates were prepared and transferred to a clean Eppendorf tube and centrifuged for 30 min at 14,000 rpm. The supernate was probed by western blotting, as described above.

SiHa tumor xenografts [5] = assay: Subcutaneous tumor model in nude mice; type: in vivo, mouse (Balb/C-nu/nu); conditions: 400 and 800 µg/mouse i.v., 16 days, p<0.01
Procedure: A subcutaneous tumor model of nude mice was constructed. In brief, six-week-old female nude mice (18±2 g) were subcutaneously inoculated with 1.5×10^7 SiHa cells. When the tumor size reached about 100 mm^2, the mice were randomly divided into four groups with 5 mice each, namely, control group, low-dose group, middle-dose group, and high-dose group. […] The mice were raised for another 3 weeks. Tumor sizes were measured with a caliper every three days and tumor volume was calculated using “volume = length×width^2/2.” At the end of the experiment, all mice were sacrificed and the weights of the detached tumors were measured. Tumor growth inhibition ratio was represented as the tumor weight relative to the control, calculated using the formula, “Relative tumor weight (% of control) = average tumor weight of treatment group/average tumor weight of control group×100%.”

SiHa tumor xenografts [6] = assay: H/E staining and BrdU-incorporation of tumor tissues; type: in vivo, mouse (Balb/C-nu/nu); conditions: 400 µg/mouse group
Procedure: Three or two mice bearing tumor of each group were prelabeled with intra-peritoneal injection of BrdU (100 mg/kg, Sigma-Aldrich, Inc., Aaint Louis, MO, USA) 15 hours before sacrificed. Tumor specimens were then prepared as formalin-fixed, paraffin-embedded sections for hematoxylin-eosin staining, BrdU and pRb immunohistochemical staining as previously described, [57]. In brief, immunostaining was performed on formalin-fixed, paraffin-embedded sections using the anti-pRb monoclonal and anti- BrdU monoclonal antibodies, respectively. Before the application of the primary antibodies, an antigen retrieval technique was performed. […] The antibodies were detected by means of the Strept Avidin-Biotin Complex (SABC) method (Wuhan Boster Biological Technology, Ltd., Wuhan, P.R. China.) according to the manufacturer's instructions. Stained slides were examined under a Nikon ECLIPSE TE2000-U microscope (Nikon Corporation, Tokyo, Japan) and images were collected and analyzed with Pixera Penguin 600CL DiRactor™ (Pixera Corporation, Los Gatos, CA, USA). BrdU or pRb-positive cells were counted in each section. The total cell number was determined by nuclear staining with hematoxylin. At least 1000 total cells for each case were counted.

cyclins A, D1, and E1 = assay: qRT-PCR of tumor tissues; type: in vivo, mouse (Balb/C-nu/nu)
Procedure: Total RNA was extracted from the cultured cells using TRIzol reagent (Invitrogen, Carlsbad, CA,USA) according to the manufacturer's instructions. qRT-PCR was used to confirm the expression levels of mRNAs. Reverse transcription and qPCR were performed according to the protocol of Reverse Transcriptase System™ and SYBR® premix Ex Taq™ (Perfect Real Time) (TaKaRa, Dalian, P.R. China) on the ABI 7300 Real Time PCR System (Applied Biosystems, Foster City, CA, USA) supplied with analytical software. β-actin mRNA levels were used for normalization. Each sample was determined in triplicate. The results represent means ± SE from three experiment runs.

Sequence: SACPKGLDWCGG (C&C bridged by disulfide bonds) (disulfide) [Pep-7]
- binding to HPV18 E7 (HPV18 E7): did not bind to HPV18 E7
- cell proliferation (MTT) (CaSki cells [1]): repressed significantly by Pep-7 in a dose- and time-dependent manner
- cell proliferation (MTT) (HeLa cells): could not repress the proliferation of HeLa cells
- cell proliferation (MTT) [2]: negligible effect
- cell proliferation (MTT) [3]: negligible effect
- HPV16E7 protein level (CaSki cells [4]): reduced
- cyclins A, D1 and E1 protein expression (CaSki cells [4]): significantly reduced
- pRb protein level (CaSki cells [4]): increased
- anti-tumor efficacy (SiHa tumor xenografts [5]): significant anti-tumor efficacy
- H/E staining and BrdU uptake of tumor tissue (SiHa tumor xenografts [6]): repressed tumor growth
- cyclins A, D1, and E1 RNA levels in tumor tissue (cyclins A, D1, and E1): reduced
